From patent publication US10300000B2, “Inhibition of melanogenesis by chemically modified curcumins” (The Research Foundation for The State University of New York, priority 2016, dated 2019)
Like-named read-outs stand apart in the source and are kept apart here.

Columns and labels:
[1] = test system: mushroom tyrosinase; assay: Mushroom tyrosinase activity, cell-free, L-DOPA substrate; assay type: biochemical; settings: all concentrations tested
Description: The direct effects of the compounds on tyrosinase enzyme activity were tested using mushroom tyrosinase enzyme with L-DOPA substrate. Briefly, 80 μl of all the 6 test compounds prepared at different concentrations in 50 mM sodium phosphate (pH 6.5) buffer was added to 96 wells followed by 100 μl of freshly prepared substrate solution (3 mM L-DOPA in buffer). The reaction was initiated by adding 20 μl of mushroom tyrosinase enzyme (final concentration of enzyme in wells was 3.5 μg/ml). The production of DOPAchrome was monitored by measuring the kinetics of absorbance increase at 475 nm (for 30 min every 30 seconds) at 30° C. using microplate reader (Versamax®). The slopes of the kinetic readings were calculated to determine and compare tyrosinase activity from control.

[2] = test system: HaCaT cells; settings: HaCaT, 48 hours
Description: Briefly, 2×10^4 cells/well were seeded in 96-well plates and after 24 hours, the compounds at concentrations of 5-25 μM were added to the wells and incubated for 48 hours. Absorbance was read after 1 hour of incubation of plates and results were expressed as % of control.

[3] = test system: HaCaT cells; assay: Phagocytosis assay using Fluosphere beads in keratinocytes; assay type: cell-based, human; settings: beads 24 hours
Excerpt: The final steps of melanognesis in the skin involve transfer of melanin contained within matgure melanosomes from melanocytes to keratinocytes. In order to model melanosome uptake by keratinocytes in the presence of CMCs, we used uptake of fluosphere latex beads (0.5 μm, carboxylate-modified, Molecular Probes, Eugene, Oreg.) by a human keratinocyte cell line (HaCaT) as a model for melanosome uptake study; this model has been previously established [Cardinali G, et al. 2005; Cardinali, G. et al. 2008] to study phagocytosis by keratinocytes. HaCaT cells were cultured in 24 well plates (3.5×10^4 cells/well) for 48 hours and then media was replaced with fresh media containing CMCs (CMC2.14 at 10 μM, CMC2.5 at 20 μM, CMC2.23 at 20 μM and CMC2.24 at 20 μM). Control wells were treated with 0.1% DMSO. After 48 hours exposure, media was removed and wells were washed with PBS and Fluosphere bead solution was suspended in complete medium by sonication for 15 minutes was then diluted in complete medium before addition to the wells ([…]) and further incubation for 24 hours. After the treatment, wells were washed in PBS and extracellular fluorescence was quenched using trypan blue (0.1% in PBS); Fluorescence intensity over the entire bottom surface of each well was measured at excitation/emission of 580/605 using the “well-scan” mode with average of 21 points/well for triplicate wells in a Gemini EM fluorescence plate reader. Controls without any beads were used as blank for background subtraction and results are reported as RFU values expressed as % relative to control.

[4] = DPPH antioxidant assay; settings: cell-free
Excerpt: Melanogenesis is often associated with higher oxidative stress and reactive oxygen species (ROS) generation. […] DPPH is a stable free radical which changes color from purple to yellow upon reduction by antioxidant compounds by electron donation; the color change can be measured spectrophotometrically. […] Briefly, 2,2-Diphenyl-1-picrylhydrazyl (DPPH) was freshly prepared in methanol and mixed with different concentrations of the compounds in triplicates in a 96 well plate. The Negative Control group consisted of DPPH only and Ascorbic Acid (AA) at 100 μg/ml was used as a positive control. The final DPPH concentration was 100 μM and final volume was 200 ul in the plate (20 μl samples with 180 μl of DPPH). The plate was covered and incubated for 30 minutes. Absorbance was read at 517 nm.

[5] = test system: MITF; assay: MITF protein levels by cell-based ELISA in B16F10 cells; parameters: species or system mouse; settings: 48 hours
Description: MITF is the master regulator of melanogenesis and a known transcription factor for tyrosinase gene. The effects of PC and CMCs on micropthalmia transcription factor (MITF) proteins levels were assayed using a cell-based ELISA (LifeSpan Biosciences, Seattle). Briefly, B16F10 cells were cultured in a 96-well plate at 1×10^4 cells/well for 24 hours and then media was replaced with fresh media containing compounds in 0.1% DMSO for further 48 hours. The cells were then fixed and subsequent steps were conducted based on manufacturer instructions. The absorbance of MITF expression levels were normalized by absorbance of crystal violet stain (0.05%) and data was reported as % of control.

[6] = target: T1, cellular tyrosinase in B16F10 cells (Mus musculus, UniProt P11344); assay: Intracellular tyrosinase activity in B16F10 cells; assay type: cell-based; settings: B16F10 cells exposed for 48 hours; non-linear curve fitting; read-out: IC50-Cellular tyrosinase inhibition
T1 construct: endogenous in cells; host or cells: B16F10
T1 sequence (P11344 19-533): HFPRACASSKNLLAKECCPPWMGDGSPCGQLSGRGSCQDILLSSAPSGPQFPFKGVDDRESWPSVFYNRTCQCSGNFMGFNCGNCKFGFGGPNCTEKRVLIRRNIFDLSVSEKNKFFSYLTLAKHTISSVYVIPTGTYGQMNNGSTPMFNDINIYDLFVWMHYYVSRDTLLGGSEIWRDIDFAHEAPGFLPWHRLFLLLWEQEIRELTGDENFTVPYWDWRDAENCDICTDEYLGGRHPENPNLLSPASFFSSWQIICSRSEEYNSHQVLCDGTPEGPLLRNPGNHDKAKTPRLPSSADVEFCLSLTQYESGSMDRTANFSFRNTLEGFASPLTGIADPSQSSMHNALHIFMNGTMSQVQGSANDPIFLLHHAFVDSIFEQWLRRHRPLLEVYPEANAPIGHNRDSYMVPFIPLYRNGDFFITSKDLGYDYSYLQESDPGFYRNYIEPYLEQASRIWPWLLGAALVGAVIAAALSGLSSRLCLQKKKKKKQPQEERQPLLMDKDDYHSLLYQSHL
Description: We quantitated the cellular tyrosinase activity to delineate mechanism of melanogenesis inhibition by the compounds. Briefly, B16F10 cells were cultured in 24-well tissue culture plates at a density of 4×10^4 cells/well. After 24 hrs, media was changed and test compounds were added, and further incubated for 48 hrs. At the end of treatments, cells were trypsinized and cell pellets were washed in PBS and lysed with lysis buffer (containing 1% NP-40 to solubilize the normally membrane-bound enzyme and protease inhibitors) under ice for 20 minutes and then centrifuged to remove cellular debris. 50 μl of lysates were then aliquoted in 96-well microplate and 150 μl of 3 mM solution of freshly prepared L-DOPA in phosphate buffer, pH 6.8 was added. […] The % inhibition of tyrosinase activity was calculated by determining melanin formation rates from measurements of the linear regions of the slopes of melanin content as a function of time and comparing computed rates of melanin formation in the presence of the test compounds to those of the controls.

[7] = B16F10, 5 μM (printed 5 M for CMC2.23)
[8] = B16F10, 20 μM (printed 20 M for CMC2.5)

| Structure (SMILES) | inhibition of mushroom tyrosinase activity [1] | stimulation of cell proliferation ([2]; 10 μM) [%] | stimulation of cell proliferation ([2]; 20 μM) [%] | inhibition of phagocytosis of Fluosphere beads ([3]; 20 μM pretreatment 48 hours) [%] | DPPH antioxidant activity [4] | inhibition of MITF protein levels [5, 7] | inhibition of MITF protein levels [5, 8] [%] | inhibition of MITF protein levels ([5]; B16F10, 25 μM) [%] | IC50 [6] [µM] | inhibition of MITF protein levels ([5]; B16F10, 10 μM) | stimulation of cell proliferation ([2]; 5 μM) [%] | inhibition of phagocytosis of Fluosphere beads ([3]; 10 μM pretreatment 48 hours) [%] | inhibition of MITF protein levels ([5]; B16F10, tested concentrations 5-10 μM) |
| --- | --- | --- | --- | --- | --- | --- | --- | --- | --- | --- | --- | --- | --- |
| COc1cc(/C=C/C(=O)C(C(=O)/C=C/c2ccc(O)c(OC)c2)C(=O)Nc2ccccc2)ccc1O [CMC2.23] | moderate inhibition | 11.3 | 22.9 | 37.4 | significant DPPH radical scavenging activity | 20% | 40 | 40 | 13 |  |  |  |  |
| COC(=O)C(C(=O)C=Cc1ccc(O)c(OC)c1)C(=O)C=Cc1ccc(O)c(OC)c1 (centres unmarked) [CMC2.5, 4-methoxycarbonyl curcumin] | moderate inhibition |  |  | 38.4 | significant DPPH radical scavenging activity | did not show any suppression | 35 |  | 50.7 | did not show any suppression |  |  |  |
| COC(=O)C(C(=O)/C=C/c1ccc(O)cc1)C(=O)/C=C/c1ccc(O)cc1 [CMC2.14] | moderate inhibition | 15.5 |  |  | did not demonstrate potent antioxidant activity |  |  |  | 4.69 |  | 23.2 | 39.6 | did not show any significant reduction |
